Molecular target: T1, DYRK1B (Homo sapiens, UniProt Q9Y463)
T1 construct: Recombinant DYRK1B expressed in insect cells (Carna Biosciences)
Assay: in vitro enzyme assay; MRM mass spectrometry of autophosphorylation sites
Type: biochemical

T1 sequence (Q9Y463 whole entry): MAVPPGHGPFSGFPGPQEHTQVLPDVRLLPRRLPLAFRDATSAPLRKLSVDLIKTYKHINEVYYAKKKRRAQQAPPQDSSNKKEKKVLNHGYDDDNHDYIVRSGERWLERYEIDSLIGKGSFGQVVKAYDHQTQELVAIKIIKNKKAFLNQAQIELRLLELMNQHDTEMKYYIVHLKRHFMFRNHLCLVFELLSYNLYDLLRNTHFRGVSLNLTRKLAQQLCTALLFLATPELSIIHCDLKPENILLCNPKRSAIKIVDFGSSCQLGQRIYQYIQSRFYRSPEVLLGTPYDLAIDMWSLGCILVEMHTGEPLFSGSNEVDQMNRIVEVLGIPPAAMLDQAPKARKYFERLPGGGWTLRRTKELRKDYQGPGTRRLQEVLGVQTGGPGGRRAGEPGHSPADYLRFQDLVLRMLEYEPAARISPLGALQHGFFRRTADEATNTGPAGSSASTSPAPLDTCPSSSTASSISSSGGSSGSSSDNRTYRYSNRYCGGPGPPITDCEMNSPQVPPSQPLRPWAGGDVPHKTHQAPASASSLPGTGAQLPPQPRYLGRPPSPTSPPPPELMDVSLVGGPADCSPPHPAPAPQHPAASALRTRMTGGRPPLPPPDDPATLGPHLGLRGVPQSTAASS

IC50: < 30 nM
Substance: AZ’294
